Drawing on a melting point compilation (Tetko et al.; mined from patent text by program, amines drawn as free bases though some values may be those of a salt), this text covers melting point for 65 compounds.

Each structure is given as a SMILES string.

What is called melting point is the temperature of the solid-liquid transition.

With `COc1ccc(N2CCOCC2)c2sc(C(=O)NCC(=O)c3ccsc3)nc12`, the melting point amounted to 170 °C. The figure for `CCOCc1cc(C(C)(C)C)cc(COCC)c1SSc1c(COCC)cc(C(C)(C)C)cc1COCC` is 62 to 63 °C. On to `CC(NC(=O)C1CCCN1C(=O)CNP(=O)(Cc1ccccc1)Cc1ccccc1)C(=O)OCc1ccccc1` (stereo not given), for which the melting point was in the range of 77 to 80 °C.

Consider `O=C(O)c1cc(OCc2ccccc2)c(C(=O)c2ccc(Cl)cc2)c([N+](=O)[O-])c1`, for which the melting point lay within 137 to 138 °C.

Compound `Oc1ccc(-n2cnc3cc(O)cc(O)c3c2=S)cc1` displayed a melting point of 299 to 302 °C. Take `COc1ccc(C2Sc3cc(Oc4ccccc4)ccc3N(CCN(C)C)C(=O)C2OC(C)=O)cc1F` (stereo not given): the melting point was in the range of 167 to 168 °C. Turning to `O=S(=O)(Nc1cccnc1Nc1ccccc1)c1ccc(Oc2ccccc2)cc1`, the melting point was in the range of 164 to 166 °C. The figure for `C=CCc1c(N)ccc2c(=O)cc(C(=O)OCC)oc12` is 142 to 143 °C; for `NCCc1ccc(-c2csc(N=C(N)N)n2)o1` it is 156 to 158 °C. To `CNC(=O)N(N=Cc1ccccc1)c1nnc(C(C)(C)C)s1` belongs 115 to 116 °C; to `c1csc(Cn2ccnc2-c2ncc[nH]2)c1`, 153 to 155 °C; to `CCCc1c(OCCCCCOc2coc(CO)cc2=O)ccc(C(C)=O)c1O`, 94 to 95 °C. To `C[C@@H]1CN(CC(=O)Nc2nc3ccccc3n2C)C[C@H](C)N1c1ncnc2sccc12` belongs 200 °C. Regarding `CC(=O)OCc1c(Br)cccc1N1Cc2cc(C(C)(C)C)ccc2C1=O`, the melting point was 176 to 178 °C. The figure for `O=Cc1ccn(-c2cc3[nH]c(=O)c(=O)[nH]c3cc2[N+](=O)[O-])c1` is > 250 °C. The figure for `CCCc1nc2c(C(F)(F)F)cccc2c(O)c1C(=O)OCC` is 98 °C; for `C=CCc1c(OC(C)=O)cc(C)c2c(C)cc(=O)oc12` it is 166 °C. The figure for `COc1cc(-c2sc3nc(N)[nH]c(=O)c3c2C)ccc1Cl` is 312 to 322 °C. In the case of `O=c1[nH]ccn1CC#CCN1CCCC1`, the melting point lay within 99 to 102 °C. To `COc1ccc(C)cc1NC(=O)Nc1ccc2c(c1)CCN(C(=O)Oc1ccc(CCO)cc1Cl)C2` belongs 95 to 98 °C. Compound `CNCCc1cc(Br)cc(-c2sccc2C)c1N` displayed a melting point of 68 to 70 °C. To `O=c1[nH]c(=Cc2cccs2)c(=O)[nH]c1=Cc1ccc(OCc2ccccc2)cn1` belongs 215 to 217 °C.

In turn, `CC(C)C1(C)C(=O)N=C2c3ncc(C4OCCO4)cc3C(=O)N21` (stereo not given) had a melting point of 146 to 148 °C. As for `CCN(CCc1ccc(Nc2ncc3c(n2)-c2ccccc2C(c2cccc(Br)c2)C3)cc1)Cc1ccncc1` (stereo not given), the melting point lay within 88 to 90 °C. As to `O=C1C2CC(CN(Cc3ccccc3)C2)CN1Cc1ccccc1` (stereo not given), the melting point is 82.5 to 83.5 °C. To `CCCOc1ccccc1C(=O)Nc1cnccc1C(N)=O` belongs 181 to 183 °C. Regarding `COc1nc(SCc2ccc(F)cc2)cnc1NS(=O)(=O)c1cccc(Cl)c1Cl`, the melting point is 119 to 120 °C.

Regarding `CCc1c(-c2ccc(O)cc2)c2c(CN(C)C)cc3cccc1n32`, the melting point fell in the range of 176 to 178 °C. The figure for `CSc1cc2c(cc1C(F)(F)F)N(C(=O)Nc1ccc(C(=O)Nc3cccnc3)cc1)CC2` is > 200 °C; for `CN(C[C@@H]1C[C@H]1COc1ccc(C(=O)c2ccc(Br)cc2)cc1)C1CC1` (racemic) it is 136 to 137 °C. Consider `Cc1nc(-c2cccc3c2C2(COc4cc5c(cc42)OCCO5)C(=O)N3C)cs1` (stereo not given), for which the melting point fell in the range of 219 to 220 °C. As to `O=C(CCCS(=O)c1ccccc1)NO` (stereo not given), the melting point is 61 to 62 °C.

As for `O=C(Nc1nc(C(F)(F)F)co1)C1c2cc(F)ccc2Oc2ccc(F)cc21`, the melting point turned out to be 259 °C. To `N#CSc1c(-c2ccccc2)[nH]c(Cl)c1C#N` belongs 159 °C.

As for `O=C(O)COc1cccc2c1CCc1sc(NCCC(c3ccccc3)c3ccccc3)nc1-2`, the melting point was 240 to 243 °C. The figure for `COC(=O)Cc1c(Cl)nc(C)nc1Nc1ccccc1` is 115 to 116 °C. Regarding `C1=CNc2ccccc2C=N1`, the melting point lay within 165 to 167 °C. To `Cc1cc2sccc2c(N)n1` belongs 136 °C; to `O=C(CBr)c1cccn1S(=O)(=O)c1ccccc1`, 89 to 91 °C. The figure for `COC(=O)CCCCCCCCCCCCCCCCCCCCCOS(=O)(=O)c1ccc(C)cc1` is 74 to 76 °C. Regarding `CCOC(=O)c1cnn(-c2ccc(Cl)cc2Cl)c1C#N`, the melting point was 79 to 81 °C.

In the case of `C=CCc1c(O)ccc2c1ccc(=O)n2CC=C(C)C`, the melting point was 224 to 228 °C. To `C=CCCC(C#N)(C#N)Cc1ccc(C#N)cc1` belongs 109 °C; to `C=C(C)C(=O)OCc1ccc(C#Cc2ccc(OC(=O)C(=C)C)cc2)cc1`, 65 °C; to `O=c1[nH]c2ccc(I)cc2c(=O)n1-c1ccc(Cl)cc1`, 324 to 326 °C. Compound `CC(C)n1c(=O)n(C)c(=O)c2cn(C3Cc4ccccc4C3)cc21` returned a melting point of 158 to 160 °C.

`COCCOc1ccnc(NCc2ccccc2)c1[N+](=O)[O-]` registered a melting point of 81 to 83 °C. `Nc1ccc(S(=O)(=O)c2cc(-c3ccccc3Cl)nc(N3CCCC3)c2)cc1` returned a melting point of 188 to 190 °C. To `CS(=O)CC1=C(c2ccccc2)C(=O)N(C(C)(C)C(=O)Nc2cc(F)ccc2F)CO1` (stereo not given) belongs 105 to 107 °C; to `COCOc1c(NC(=O)NN)cc(OC)cc1C(C)(C)C`, 132 to 134 °C; to `N#Cc1cc(C(=O)O)cc(O)c1O`, 269 to 271 °C. The figure for `CCCC(=O)COS(=O)(=O)c1ccc(C)cc1` is 33 to 35 °C; for `COc1cc(C(=O)O)cc(OC)c1Cc1cnc(N)nc1N` it is 264 to 267 °C. The figure for `CCCc1nc2c(N)nc(C)c(C)c2n1C1(OC)CCCCC1` is 192 to 193 °C; for `Cc1cccc(C(=O)Cc2ccnc(F)c2)c1` it is 66 to 67 °C. With `CCCc1cc(C(=O)O)n(C)n1`, the melting point lay within 150 to 154 °C. To `CN1CC(CCCl)Oc2cc(Cl)ccc2C1=O` (stereo not given) belongs 85 to 87 °C; to `COc1cc(S(C)(=O)=O)c(C)cc1OCC(=O)NCC(O)COc1ccccc1C` (stereo not given), 75 to 79 °C; to `CCCOc1ccc2c(c1)C(c1ccc(OC)cc1OCC(=O)O)CC2c1ccc2c(c1)OCO2` (stereo not given), 177 to 178 °C. The figure for `O=Cc1cccc(Sc2ccccc2Cl)c1O` is 111 to 112 °C; for `CCOC(=O)C(=CNc1ccc(Br)cc1)C(=O)OCC` it is 100 to 102 °C.

`CCOC(=O)C(=O)N1CCN(c2ccccc2C(C)(C)C)CC1`: the melting point was in the range of 95 to 98 °C. Consider `CSc1ccc(-c2ccc(C(=O)Nc3ccc4cc(CN5CCCC5)cnc4c3C)cc2)cc1`, for which the melting point fell in the range of 206 to 208 °C. The figure for `Cc1scc2c1N(C(=O)N1CC3CN(C)CC3C1)c1ccccc1NC2=O` (stereo not given) is 220 to 222 °C; for `CCN(CC)c1cccc2c1OC1(CC1)C2=O` it is 39.3 °C.
